Experimental data: PubChem BioAssay (NCI)
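Where inhibition never reached the appropriate level, the endpoint shown equals the highest concentration tested. Otherwise, values were interpolated linearly from a five-concentration, 48-hour dose response in 96-well plates. GI50: concentration for 50% inhibition of growth. At the TGI there is no net growth.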

What was measured:
Experiment in all cases: NCI tumour cell line growth inhibition, 48 h
786-0 renal = system: 786-0 renal
A498 renal = system: A498 renal
A549 NSCLC = system: A549 NSCLC
ACHN renal = system: ACHN renal
BT-549 breast = system: BT-549 breast
CAKI-1 renal = system: CAKI-1 renal
CCRF-CEM leukemia = system: CCRF-CEM leukemia
COLO 205 colon = system: COLO 205 colon
DU-145 prostate = system: DU-145 prostate
EKVX NSCLC = system: EKVX NSCLC
HCC-2998 colon = system: HCC-2998 colon
HCT-116 colon = system: HCT-116 colon
HCT-15 colon = system: HCT-15 colon
HL-60(TB) leukemia = system: HL-60(TB) leukemia
HOP-62 NSCLC = system: HOP-62 NSCLC
HOP-92 NSCLC = system: HOP-92 NSCLC
HS 578T breast = system: HS 578T breast
HT29 colon = system: HT29 colon
IGROV1 ovarian = system: IGROV1 ovarian
K-562 leukemia = system: K-562 leukemia
KM12 colon = system: KM12 colon
LOX IMVI melanoma = system: LOX IMVI melanoma
M14 melanoma = system: M14 melanoma
MALME-3M melanoma = system: MALME-3M melanoma
MCF7 breast = system: MCF7 breast
MDA-MB-231 breast = system: MDA-MB-231 breast
MDA-MB-435 = system: MDA-MB-435
MDA-MB-468 breast = system: MDA-MB-468 breast
MOLT-4 leukemia = system: MOLT-4 leukemia
NCI-H226 lung = system: NCI-H226 lung
NCI-H23 lung = system: NCI-H23 lung
NCI-H460 lung = system: NCI-H460 lung
NCI-H522 lung = system: NCI-H522 lung
NCI/ADR-RES ovarian = system: NCI/ADR-RES ovarian
OVCAR-3 ovarian = system: OVCAR-3 ovarian
OVCAR-4 ovarian = system: OVCAR-4 ovarian
OVCAR-5 ovarian = system: OVCAR-5 ovarian
OVCAR-8 ovarian = system: OVCAR-8 ovarian
PC-3 prostate = system: PC-3 prostate
RPMI-8226 leukemia = system: RPMI-8226 leukemia
RXF 393 renal = system: RXF 393 renal
SF-268 CNS = system: SF-268 CNS
SF-295 CNS = system: SF-295 CNS
SF-539 CNS = system: SF-539 CNS
SK-MEL-2 melanoma = system: SK-MEL-2 melanoma
SK-MEL-28 melanoma = system: SK-MEL-28 melanoma
SK-MEL-5 melanoma = system: SK-MEL-5 melanoma
SK-OV-3 ovarian = system: SK-OV-3 ovarian
SN12C renal = system: SN12C renal
SNB-19 CNS = system: SNB-19 CNS
SNB-75 CNS = system: SNB-75 CNS
SR leukemia = system: SR leukemia
SW-620 colon = system: SW-620 colon
T-47D breast = system: T-47D breast
TK-10 renal = system: TK-10 renal
U251 CNS = system: U251 CNS
UACC-257 melanoma = system: UACC-257 melanoma
UACC-62 melanoma = system: UACC-62 melanoma
UO-31 renal = system: UO-31 renal

O=C(Nc1ccc(Cl)c(C(F)(F)F)c1)N1CCN(c2cc(-c3cn(-c4ccccc4)nc3-c3cccc(O)c3)ccn2)CC1
GI50 (786-0 renal): 4.02 µM
TGI (786-0 renal): > 22 µM
GI50 (A498 renal): 4.72 µM
TGI (A498 renal): 21 µM
GI50 (A549 NSCLC): 4.34 µM
TGI (A549 NSCLC): > 22 µM
GI50 (ACHN renal): 3 µM
TGI (ACHN renal): 17 µM
GI50 (BT-549 breast): 3.33 µM
TGI (BT-549 breast): 7.99 µM
GI50 (CAKI-1 renal): 4.18 µM
TGI (CAKI-1 renal): 19.4 µM
GI50 (CCRF-CEM leukemia): 1.59 µM
TGI (CCRF-CEM leukemia): 9.71 µM
GI50 (COLO 205 colon): 3.01 µM
TGI (COLO 205 colon): 9.39 µM
GI50 (DU-145 prostate): 7.15 µM
TGI (DU-145 prostate): > 22 µM
GI50 (EKVX NSCLC): 2.57 µM
TGI (EKVX NSCLC): 19.6 µM
GI50 (HCC-2998 colon): 6.1 µM
TGI (HCC-2998 colon): > 22 µM
GI50 (HCT-116 colon): 1.86 µM
TGI (HCT-116 colon): > 22 µM
GI50 (HCT-15 colon): 2.84 µM
TGI (HCT-15 colon): > 22 µM
GI50 (HL-60(TB) leukemia): 2.34 µM
TGI (HL-60(TB) leukemia): 8.58 µM
GI50 (HOP-62 NSCLC): 6.28 µM
TGI (HOP-62 NSCLC): > 22 µM
GI50 (HOP-92 NSCLC): 2.59 µM
TGI (HOP-92 NSCLC): 15.9 µM
GI50 (HS 578T breast): 3.39 µM
TGI (HS 578T breast): 15.8 µM
GI50 (HT29 colon): 4.1 µM
TGI (HT29 colon): > 22 µM
GI50 (IGROV1 ovarian): 5.11 µM
TGI (IGROV1 ovarian): > 22 µM
GI50 (K-562 leukemia): 2.13 µM
TGI (K-562 leukemia): > 22 µM
GI50 (KM12 colon): 3.34 µM
TGI (KM12 colon): 15.2 µM
GI50 (LOX IMVI melanoma): 2.99 µM
TGI (LOX IMVI melanoma): 6.52 µM
GI50 (M14 melanoma): 3.03 µM
TGI (M14 melanoma): 12.5 µM
GI50 (MALME-3M melanoma): 3.3 µM
TGI (MALME-3M melanoma): 8.95 µM
GI50 (MCF7 breast): 1.8 µM
TGI (MCF7 breast): 10.1 µM
GI50 (MDA-MB-231 breast): 3.07 µM
TGI (MDA-MB-231 breast): 7.57 µM
GI50 (MDA-MB-435): 2.29 µM
TGI (MDA-MB-435): 6.33 µM
GI50 (MDA-MB-468 breast): 1.03 µM
TGI (MDA-MB-468 breast): 7.22 µM
GI50 (MOLT-4 leukemia): 0.93 µM
TGI (MOLT-4 leukemia): 7.58 µM
GI50 (NCI-H226 lung): 3.22 µM
TGI (NCI-H226 lung): 15.8 µM
GI50 (NCI-H23 lung): 3.69 µM
TGI (NCI-H23 lung): 14.9 µM
GI50 (NCI-H460 lung): 2.47 µM
TGI (NCI-H460 lung): > 22 µM
GI50 (NCI-H522 lung): 2.77 µM
TGI (NCI-H522 lung): 9.26 µM
GI50 (NCI/ADR-RES ovarian): 2.91 µM
TGI (NCI/ADR-RES ovarian): 11.9 µM
GI50 (OVCAR-3 ovarian): 1.76 µM
TGI (OVCAR-3 ovarian): 11.5 µM
GI50 (OVCAR-4 ovarian): 2.02 µM
TGI (OVCAR-4 ovarian): > 22 µM
GI50 (OVCAR-5 ovarian): 4.13 µM
TGI (OVCAR-5 ovarian): 10.5 µM
GI50 (OVCAR-8 ovarian): 4.72 µM
TGI (OVCAR-8 ovarian): > 22 µM
GI50 (PC-3 prostate): 0.967 µM
TGI (PC-3 prostate): 17 µM
GI50 (RPMI-8226 leukemia): 1.21 µM
TGI (RPMI-8226 leukemia): 11.8 µM
GI50 (RXF 393 renal): 2.42 µM
TGI (RXF 393 renal): 9.79 µM
GI50 (SF-268 CNS): 3.3 µM
TGI (SF-268 CNS): > 22 µM
GI50 (SF-295 CNS): 1.5 µM
TGI (SF-295 CNS): 7.25 µM
GI50 (SF-539 CNS): 4.21 µM
TGI (SF-539 CNS): > 22 µM
GI50 (SK-MEL-2 melanoma): 3.54 µM
TGI (SK-MEL-2 melanoma): 7.56 µM
GI50 (SK-MEL-28 melanoma): 3.41 µM
TGI (SK-MEL-28 melanoma): 10.3 µM
GI50 (SK-MEL-5 melanoma): 2.58 µM
TGI (SK-MEL-5 melanoma): 5.45 µM
GI50 (SK-OV-3 ovarian): 6.43 µM
TGI (SK-OV-3 ovarian): > 22 µM
GI50 (SN12C renal): 3.21 µM
TGI (SN12C renal): > 22 µM
GI50 (SNB-19 CNS): 4.06 µM
TGI (SNB-19 CNS): > 22 µM
GI50 (SNB-75 CNS): 0.634 µM
TGI (SNB-75 CNS): 11.1 µM
GI50 (SR leukemia): 3.07 µM
TGI (SR leukemia): > 22 µM
GI50 (SW-620 colon): 4.78 µM
TGI (SW-620 colon): > 22 µM
GI50 (T-47D breast): 1.13 µM
TGI (T-47D breast): 14.8 µM
GI50 (TK-10 renal): 5.92 µM
TGI (TK-10 renal): > 22 µM
GI50 (U251 CNS): 4.23 µM
TGI (U251 CNS): > 22 µM
GI50 (UACC-257 melanoma): 4.77 µM
TGI (UACC-257 melanoma): 14.3 µM
GI50 (UACC-62 melanoma): 2.68 µM
TGI (UACC-62 melanoma): 5.77 µM
GI50 (UO-31 renal): 3 µM
TGI (UO-31 renal): > 22 µM
